From ChEMBL document CHEMBL1146408, “Makaluvamine N: a new pyrroloiminoquinone from Zyzzya fuliginosa” (1997)

Molecular target: DNA topoisomerase 2-alpha (Homo sapiens) (UniProt P11388)
Experiment: Inhibition of human topoisomerase 2alpha-mediated supercoiled pBR322 DNA relaxation at 5 ug/ml by agarose gel electrophoresis

Chain of DNA topoisomerase 2-alpha (Homo sapiens) (P11388 whole entry): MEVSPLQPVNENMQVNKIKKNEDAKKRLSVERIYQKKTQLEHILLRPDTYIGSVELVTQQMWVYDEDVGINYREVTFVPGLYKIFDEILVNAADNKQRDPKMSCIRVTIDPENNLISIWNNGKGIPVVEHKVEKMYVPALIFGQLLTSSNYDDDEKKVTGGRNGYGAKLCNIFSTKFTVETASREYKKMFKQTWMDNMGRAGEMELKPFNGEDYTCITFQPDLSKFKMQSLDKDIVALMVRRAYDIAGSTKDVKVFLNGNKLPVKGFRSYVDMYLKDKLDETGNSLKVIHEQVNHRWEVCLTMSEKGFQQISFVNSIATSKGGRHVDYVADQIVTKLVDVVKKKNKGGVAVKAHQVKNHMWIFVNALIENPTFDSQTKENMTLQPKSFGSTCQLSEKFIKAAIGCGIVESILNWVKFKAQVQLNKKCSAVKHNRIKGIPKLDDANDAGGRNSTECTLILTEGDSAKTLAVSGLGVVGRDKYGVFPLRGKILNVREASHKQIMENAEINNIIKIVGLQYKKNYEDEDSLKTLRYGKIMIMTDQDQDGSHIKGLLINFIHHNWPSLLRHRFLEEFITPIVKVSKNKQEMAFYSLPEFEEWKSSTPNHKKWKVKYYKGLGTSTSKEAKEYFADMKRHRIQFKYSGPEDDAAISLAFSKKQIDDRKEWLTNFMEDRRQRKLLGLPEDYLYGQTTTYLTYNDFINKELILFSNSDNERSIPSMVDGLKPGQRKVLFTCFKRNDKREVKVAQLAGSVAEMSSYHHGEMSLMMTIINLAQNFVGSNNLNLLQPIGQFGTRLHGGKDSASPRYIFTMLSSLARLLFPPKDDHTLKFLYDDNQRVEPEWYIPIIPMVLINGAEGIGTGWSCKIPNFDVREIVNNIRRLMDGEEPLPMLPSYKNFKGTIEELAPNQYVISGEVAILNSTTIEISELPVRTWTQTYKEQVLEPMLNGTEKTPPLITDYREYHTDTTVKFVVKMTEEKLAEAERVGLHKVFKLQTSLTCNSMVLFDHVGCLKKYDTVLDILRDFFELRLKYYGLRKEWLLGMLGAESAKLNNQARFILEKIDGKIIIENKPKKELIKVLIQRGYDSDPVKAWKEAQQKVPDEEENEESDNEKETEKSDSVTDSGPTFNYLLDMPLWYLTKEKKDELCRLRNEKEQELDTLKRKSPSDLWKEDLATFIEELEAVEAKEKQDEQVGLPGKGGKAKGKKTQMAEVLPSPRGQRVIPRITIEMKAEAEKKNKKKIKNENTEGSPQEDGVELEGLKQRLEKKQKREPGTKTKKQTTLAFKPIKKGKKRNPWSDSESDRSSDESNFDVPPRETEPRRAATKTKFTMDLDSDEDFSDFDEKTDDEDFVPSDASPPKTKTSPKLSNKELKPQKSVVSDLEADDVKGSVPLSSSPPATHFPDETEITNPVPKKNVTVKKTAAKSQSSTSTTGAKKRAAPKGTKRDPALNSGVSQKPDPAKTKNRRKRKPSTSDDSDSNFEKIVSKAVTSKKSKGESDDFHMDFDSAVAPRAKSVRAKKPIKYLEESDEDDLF

NC1=C(Br)C2=NCCc3c[nH]c(c32)C1=O
inhibition: 90%
